Measured values reported in patent US20250018019A1, “TREATMENT OF INTERFERON DRIVEN INFLAMMATION” (The Provost, Fellows, Foundation Scholars and the other …, priority 2023, published 2025).
Structures can show the parent of a compound that is named as a salt.

Experiments:
human PBMCs = experiment: ELISA of IFN-β release from human PBMCs; format: cell-based; conditions: human PBMCs pre-treated, LPS 4 h
Experimental: Human blood samples from healthy donors were collected and processed at the School of Biochemistry and Immunology in TBSI (TCD). Blood samples were obtained anonymously and written informed consent for the use of blood for research purposes has been obtained from the donors. All the procedures involving experiments on human samples have been approved by the School of Biochemistry and Immunology Research Ethics Committee (TCD). Experiments were conducted according to the TCD guide on good research practice, which follows the guidelines detailed in the National Institutes of Health Belmont Report (1978) and the Declaration of Helsinki. […] The remaining pellet of mononuclear cells was resuspended, counted, and plated at 1×10^6 cells/ml in RPMI supplemented with FCS (10%) and penicillin/streptomycin (1%). […]
DuoSet ELISA kits for IL-1β, TNFα, IL-6, IL-10, and GDF15 were purchased from R&D Systems and were carried out according to the manufacturer's instructions with appropriately diluted cell supernatants added to each plate in duplicate or triplicate. IFN-β was determined using DuoSet ELISA kit from R&D Systems or Abcam (ab252363). […] Absorbance at 450 nm was quantified using a FLUOstar Optima plate reader. […]

BMDMs [1] = experiment: Seahorse XF Glycolysis Stress Test (ECAR); format: cell-based, mouse; conditions: BMDMs pre-treated 3 h, LPS 4 h
Experimental: (§1) All compounds used DMSO as a vehicle except for 4-hydroxy tamoxifen (EtOH), NAC (PBS), and AOAA for tracing experiments (Media). LPS was used at a concentration of 100 ng/ml for indicated timepoints (2, 3, 4, 6, 8, 24, 48 h). FHIN1 (10 or 20 μM), MMF (50 or 100 μM), DMF (25 μM), AOAA (5 mM), oligomycin (10 μM), CCCP (50 μM) NAC (1 mM), and IMT1 (10 μM) pre-treatments were performed for 3 h prior the addition of LPS. Cells were treated with valinomycin (10 nM) 15 mins before LPS stimulation. Anti-CD210 or IgG control (10 μg/ml) antibodies were added to cells 1 h prior to LPS stimulation. Recombinant mouse IL-10 protein (100 ng/ml) was added to cells at the same time as LPS. Cells were treated with IFN-B1 (220 ng/ml) for 3 h. Cells were treated with C-178 (1 μM) 1 h prior to LPS stimulation or transfection with 2′3′-cGAMP (1.5 μg/ml) for 4 hrs to achieve cGAS-STING activation. Cells were treated with ODN 2088 (1 μM) for 1 hr prior to LPS stimulation or transfection with CPG ODN 1826 (1.5 μg/ml) to achieve TLR9 activation. 3 different timepoints of 4-hydroxy tamoxifen (TAM) (600 nM or 2 μM) or EtOH treatment were performed-these are specified in the individual figure legends. For ‘48 h’ treatments EtOH/TAM was added on day 5 of 6 during the BMDM differentiation protocol. On day 6 they were plated with EtOH/TAM (left overnight) and treated the following day. […]

BMDMs [2] = experiment: ELISA of cytokine release from BMDMs; format: cell-based, mouse; conditions: for IL-6 release / IL-10 release / TNF-α release: BMDMs pre-treated 3 h
Experimental: All compounds used DMSO as a vehicle except for 4-hydroxy tamoxifen (EtOH), NAC (PBS), and AOAA for tracing experiments (Media). LPS was used at a concentration of 100 ng/ml for indicated timepoints (2, 3, 4, 6, 8, 24, 48 h). FHIN1 (10 or 20 μM), MMF (50 or 100 μM), DMF (25 μM), AOAA (5 mM), oligomycin (10 μM), CCCP (50 μM) NAC (1 mM), and IMT1 (10 μM) pre-treatments were performed for 3 h prior the addition of LPS. Cells were treated with valinomycin (10 nM) 15 mins before LPS stimulation. Anti-CD210 or IgG control (10 μg/ml) antibodies were added to cells 1 h prior to LPS stimulation. Recombinant mouse IL-10 protein (100 ng/ml) was added to cells at the same time as LPS. Cells were treated with IFN-B1 (220 ng/ml) for 3 h. Cells were treated with C-178 (1 μM) 1 h prior to LPS stimulation or transfection with 2′3′-cGAMP (1.5 μg/ml) for 4 hrs to achieve cGAS-STING activation. Cells were treated with ODN 2088 (1 μM) for 1 hr prior to LPS stimulation or transfection with CPG ODN 1826 (1.5 μg/ml) to achieve TLR9 activation. 3 different timepoints of 4-hydroxy tamoxifen (TAM) (600 nM or 2 μM) or EtOH treatment were performed-these are specified in the individual figure legends. For ‘48 h’ treatments EtOH/TAM was added on day 5 of 6 during the BMDM differentiation protocol. On day 6 they were plated with EtOH/TAM (left overnight) and treated the following day. For ‘72 h’ treatments EtOH/TAM was added on day […] of 6 during the BMDM differentiation protocol. On day 6 they were plated with EtOH/TAM (left overnight) and treated the following day. For ‘96 h’ treatments EtOH/TAM was added on day […] of 6 during the BMDM differentiation protocol. On day 6 they were plated with EtOH/TAM and treated 2 days later.
Pre-designed silencer select siRNAs for Cgas (s103166), Tmem173 (s91058), Tlr3 (s100579), Tlr9 (s96268), As/(s99640), Tlr7 (s100720), Ddx58 (s106376), Ifih1 (s89787), Nrf2 (s70522), Atf4 (s62689) and negative control (4390843) were ordered from Thermo Fisher. siRNA sequences are given in Table S2. Cells were transfected with 50 nM siRNA using 5 μl lipofectamine RNAiMAX according to manufacturer's instructions (Thermo Fisher). Cells were transfected in medium without serum and antibiotics which was replaced with complete medium 8 hours later. Cells were subsequently left for at least a further 12 hours prior to treatment.
BMDMs were plated in the presence or absence of ultrapure ethidium bromide (100 ng/ml) and incubated for a further 6 days prior to treatment. Depletion of mtDNA was determined by genomic DNA isolation followed by qPCR using primers specific for areas of mitochondrial DNA (D-loop) and areas of mtDNA that are not inserted into nuclear DNA (Non-NUMT).
DuoSet ELISA kits for IL-1β, TNFα, IL-6, IL-10, and GDF15 were purchased from R&D Systems and were carried out according to the manufacturer's instructions with appropriately diluted cell supernatants added to each plate in duplicate or triplicate. IFN-β was determined using DuoSet ELISA kit from R&D Systems or Abcam (ab252363). Quantikine ELISA kit for IFN-β (R&D Systems) was used for determination of IFN-β concentration in serum samples and from human cells, and these were also carried out according to the manufacturer's instructions. Absorbance at 450 nm was quantified using a FLUOstar Optima plate reader. Corrected absorbance values were calculated by subtracting the background absorbance, and cytokine concentrations were subsequently obtained by extrapolation from a standard curve plotted on GraphPad Prism 9.2.0.

BMDMs [3] = experiment: Seahorse XF Mito Stress Test (respirometry, OCR); format: cell-based, mouse; conditions: BMDMs pre-treated 3 h, LPS 4 h
Experimental: as §1

| Structure (SMILES) | LPS-induced IFN-β release (human PBMCs) | glycolysis (ECAR) (BMDMs [1]) | IL-6 release (BMDMs [2]; LPS 4 h) | IL-10 release (BMDMs [2]; LPS 4 h) | TNF-α release (BMDMs [2]; LPS 4 h) | basal respiration, ATP production and maximal respiration as measured by OCR (BMDMs [3]) | GDF15 release (BMDMs [2]; BMDMs pre-treated, LPS 4 h) | LPS-induced IFN-β release (BMDMs [2]; BMDMs pre-treated, LPS 4 h) | TNF-α production (BMDMs [2]; BMDMs pre-treated, co-treated with recombinant IL-10 100 ng/ml, LPS 4 h) | LPS-induced IFN-β release in the presence of EtBr (BMDMs [2]; BMDMs treated with EtBr 100 ng/ml 6 days (mtDNA depletion), then FHIN1, LPS 4 h) | augmentation in IFN-β release with knockdown of Tlr3 (BMDMs [2]; BMDMs, siRNA 50 nM, LPS 4 h) | boost in IFN-β release with silencing of Tlr7, Ddx58 (RIG-I) or Ifih1 (MDA5) (BMDMs [2]; BMDMs, siRNA 50 nM, LPS 4 h) |
| --- | --- | --- | --- | --- | --- | --- | --- | --- | --- | --- | --- | --- |
| COC(=O)/C=C/C(=O)OC [DMF, dimethyl fumarate] | suppressed | suppressed glycolysis | reduced | decreased | increased | no effect |  |  |  |  |  |  |
| CCOC(=O)[C@@]12CCCC=C1N(Cc1ccc(-c3ccccc3)cc1)C(=O)[C@H]2CC(=O)NC [FHIN1, Fumarate hydratase-IN-1] | boosted |  | reduced | decreased | increased | impaired | drove GDF15 release | increase | failed to impair STAT3 phosphorylation or augment TNF-α production | no longer boosted | did not affect | abrogated |
